Experimental data: patent US20160158309A1, “EXERCISE FUNCTION ENHANCER” (KOHJIN LIFE SCIENCES CO., LTD., priority 2014, published 2016)
Entries after “also recorded” stand apart in the source; their conditions may differ.

Tests used:
PGC-1α = PGC-1α amount in soleus muscle by western blot; format: in vivo, ICR mice; conditions: treated vs control groups; oral once a day for two weeks, 2.0% solution 5 μl/g body weight; sedentary group soleus muscle
Protocol: An amount of PGC-1α in the muscles was measured using a western blot test. Soleus muscle of a sedentary group was homogenized and protein concentration was measured using the BCA method (BCA™ Protein Assay Kit, Thermo [sequence]). The prepared protein sample was poured into 10% gel (Wako), was separated by electrophoresis, and was transferred to a membrane using a transfer device (iBlot, Invitrogen). After 30 minutes of blocking (EzBlokChemi, ATTO CORPORATION), the sample was cleaned three times for five minutes each in Tris buffered saline-(BIO-RAD Laboratories) Tween 20 (Wako) (TBST), and was reacted with a primary antibody using an anti-PGC-1α antibody (CHEMICON International) for 60 minutes at room temperature. The sample was then cleaned three times for five minutes each in TBST and was reacted with a secondary antibody using anti-rabbit antibody (GE Healthcare) for 60 minutes at room temperature. The sample was then cleaned three times for five minutes each in TBST and was reacted with a coloring agent (ECL plus, GE Healthcare) for four minutes. Using an image analysis device (ImageQuant LAS 4000, GE Healthcare), bands were detected and converted to numerical values. Thereafter, a relative ratio with respect to a control set was calculated.
The experiment was conducted using 7-week-old male ICR mice (Shimizu Laboratory Supplies). After one week of preliminary care, the mice were separated into two groups based on body weight: a glutathione group (n=21) and a control group (n=21). […] The same amount of distilled water was administered orally to the control group for the same period of time. A twelve-hour light/dark cycle was maintained in the enclosure and the mice were able to freely take food and water from a plastic gauge. On the final day, the groups were further divided into a control sedentary group (n=13), a control exercise group (n=8), a glutathione sedentary group (n=13), and a glutathione exercise group (n=8). The exercise groups were given the task of running on a treadmill, after which all groups were dissected. […]

[1] = Muscle tissue pH after treadmill exercise in mice; format: in vivo, ICR mice; conditions: exercise group vs control exercise group; oral once a day for two weeks, 2.0% solution 5 μl/g body weight; treadmill 30 minutes at 25 m/min; tibialis anterior and gastrocnemis muscle
Protocol: After anesthetic, intermuscular pH of the tibialis anterior muscle and the gastrocnemis muscle was measured using a micro-glass electrode (CMN-141, Chemical Instruments).
The experiment was conducted using 7-week-old male ICR mice (Shimizu Laboratory Supplies). After one week of preliminary care, the mice were separated into two groups based on body weight: a glutathione group (n=21) and a control group (n=21). Glutathione (KOHJIN Life Sciences Co., Ltd.) was prepared in a 2.0% solution and was administered orally once a day for two weeks to the glutathione group at a dose of 5 μl/g of body weight. The same amount of distilled water was administered orally to the control group for the same period of time. […] On the final day, the groups were further divided into a control sedentary group (n=13), a control exercise group (n=8), a glutathione sedentary group (n=13), and a glutathione exercise group (n=8). The exercise groups were given the task of running on a treadmill, after which all groups were dissected.
The exercise task employed a treadmill (MK680, Muromachi Kikai). On the day of the exercise task, the sedentary groups were dissected without performing the exercise task, while the exercise groups were given the task of running on a treadmill for 30 minutes at a speed of 25 m/min, then were dissected immediately after completing the exercise task.
All of the data was plotted with the mean value±standard error. After performing a two-way analysis of variance in comparing the four groups, a multiple comparison test (Bonferroni) was performed. Student's t-distribution test was performed when comparing two groups. Level of significance was defined at 5%.

## O=C1O[C@H]([C@@H](O)CO)C(O)=C1O [vitamin C]
PGC-1α
  PGC-1α expression in the soleus muscles (relative ratio to control): not observed
[1]
  Muscle tissue pH: not observed

## N[C@@H](CCC(=O)N[C@@H](CS)C(=O)NCC(=O)O)C(=O)O [glutathione, γ-L-Glu-L-Cys-Gly]
PGC-1α
  PGC-1α expression in the soleus muscles (relative ratio to control): significantly higher value; also recorded: an increase in PGC-1α expression
[1]
  Muscle tissue pH: significantly higher value; also recorded: no reduction in muscle tissue pH was observed
